3 molecules from patent US8642623B2, “Vanilloid receptor ligand compounds, pharmaceutical compositions containing them, a method of producing them and the use thereof to treat pain and various other conditions” (Gruenenthal GmbH, priority 2007, dated 2014) can be followed below.

Common to all, as to assay type: cell-based
For assay [1], the target named is T1, vanilloid receptor 1 (VR1/TRPV1) of the rat species (Rattus norvegicus, UniProt O35433).
T1 construct: The spinal column is removed from decapitated rats; from tissue; host or cells: primary cells from rat dorsal root ganglia (DRG)
T1 sequence (O35433 whole entry): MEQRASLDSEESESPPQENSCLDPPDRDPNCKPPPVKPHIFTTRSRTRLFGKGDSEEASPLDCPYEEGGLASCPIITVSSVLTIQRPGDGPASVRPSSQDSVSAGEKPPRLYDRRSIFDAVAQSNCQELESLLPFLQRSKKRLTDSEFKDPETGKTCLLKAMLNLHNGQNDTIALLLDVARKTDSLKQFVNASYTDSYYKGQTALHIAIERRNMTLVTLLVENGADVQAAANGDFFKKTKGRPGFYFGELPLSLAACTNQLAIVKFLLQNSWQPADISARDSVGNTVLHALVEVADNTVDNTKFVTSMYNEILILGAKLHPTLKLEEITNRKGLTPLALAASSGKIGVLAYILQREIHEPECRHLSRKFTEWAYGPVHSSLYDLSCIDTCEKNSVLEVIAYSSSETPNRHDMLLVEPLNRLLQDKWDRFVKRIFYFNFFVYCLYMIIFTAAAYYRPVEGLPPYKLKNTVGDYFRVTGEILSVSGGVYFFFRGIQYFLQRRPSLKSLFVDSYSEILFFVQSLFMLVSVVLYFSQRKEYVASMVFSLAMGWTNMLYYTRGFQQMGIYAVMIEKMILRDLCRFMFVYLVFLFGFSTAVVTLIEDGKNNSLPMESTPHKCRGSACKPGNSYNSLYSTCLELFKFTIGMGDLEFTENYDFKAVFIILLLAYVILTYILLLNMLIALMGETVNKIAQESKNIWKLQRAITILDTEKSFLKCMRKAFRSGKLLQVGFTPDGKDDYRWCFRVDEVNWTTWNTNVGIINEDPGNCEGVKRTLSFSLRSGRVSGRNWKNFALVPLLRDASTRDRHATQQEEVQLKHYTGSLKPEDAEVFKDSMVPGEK
The experiment in a line: FLIPR Ca2+ influx assay on rat dorsal root ganglia cells, capsaicin stimulus (Pharmacological method I). As to conditions: capsaicin 100 nM stimulus, Ki from IC50 by Cheng-Prusoff. Here is the method: The agonistic or antagonistic action of the substances to be investigated on the vanilloid receptor 1 (VR1/TRPV1) of the rat species may be determined with the following assay. According to this assay, the influx of Ca^2+ through the receptor channel is quantified with the assistance of a Ca^2+-sensitive dye (type Fluo-4, Molecular Probes Europe BV, Leiden, Netherlands) in a Fluorescent Imaging Plate Reader (FLIPR, Molecular Devices, Sunnyvale, USA).
Complete medium: 50 mL HAMS F12 Nutrient Mixture (Gibco Invitrogen GmbH, Karlsruhe, Germany) with 10 vol. % FCS (foetal calf serum, Gibco Invitrogen GmbH, Karlsruhe, Germany, heat-inactivated);
Cell culture plate: poly-D-lysine-coated, black 96-hole plates with clear base (96 well black/clear plate, BD Biosciences, Heidelberg, Germany) are additionally coated with laminin (Gibco Invitrogen GmbH, Karlsruhe, Germany), by diluting laminin to a concentration of 100 μg/mL with PBS (Ca—Mg-free PBS, Gibco Invitrogen GmbH, Karlsruhe, Germany). Aliquots with a concentration of 100 μg/mL of laminin are taken and stored at −20° C. The aliquots are diluted with PBS in the ratio of 1:10 to 10 μg/mL of laminin and 50 μL of the solution is pipetted into each well of the cell culture plate. The cell culture plates are incubated for at least two hours at 37° C., the supernatant solution is aspirated and the wells are each washed twice with PBS. The coated cell culture plates are stored with supernatant PBS and this is only removed directly prior to introduction of the cells.
The spinal column is removed from decapitated rats and this is placed directly in cold HBSS buffer (Hank's buffered saline solution, Gibco Invitrogen GmbH, Karlsruhe, Germany), i.e. located in an ice bath, combined with 1 vol. % (percent by volume) of an AA solution (antibiotic/antimycotic solution, PAA, Pasching, Austria). The spinal column is severed lengthwise and removed from the spinal canal together with fasciae. The dorsal root ganglia (DRGs) are then removed and in turn stored in cold HBSS buffer combined with 1 vol. % of an AA solution. The DRGs, from which blood residues and spinal nerves have been completely removed, are in each case transferred into 500 μL cold collagenase type 2 (PAA, Pasching, Austria) and incubated for 35 minutes at 37° C. After the addition of 2.5 vol. % trypsin (PAA, Pasching, Austria) incubation at 37° C. is continued for a further 10 minutes. After complete incubation, the enzyme solution is carefully pipetted off and the remaining DRGs are combined in each case with 500 μL of complete medium.
The DRGs are in each case repeatedly suspended, drawn through cannulas no. 1, no. 12 and no. 16 by means of a syringe and transferred into 50 mL Falcon microtubes, these being filled to 15 mL with complete medium. The content of each Falcon microtube is in each case filtered through a 70 μm Falcon filter insert and centrifuged for 10 minutes at 1200 revolutions and room temperature. The resultant pellet is in each case redissolved in 250 μL of complete medium and the cell count is determined.
The number of cells in the suspension is adjusted to 3×10^5 per mL and a 150 μL portion of this suspension is in each case placed in a well of the cell culture plates which have been coated as described above. The plates are left to stand in the incubator for two to three days at 37° C., 5 vol. % CO2 and 95% relative atmospheric humidity.
The cells are then loaded with 2 μM Fluo-4 and 0.01 vol. % Pluronic F127 (Molecular Probes Europe BV, Leiden, Netherlands) in HBSS buffer (Hank's buffered saline solution, Gibco Invitrogen GmbH, Karlsruhe, Germany) for 30 min at 37° C., washed 3×with HBSS buffer and, after a further 15 minutes' incubation at room temperature, used for Ca^2+ measurement in the FLIPR assay. Ca^2+-dependent fluorescence is here measured before and after the addition of substances (λex=488 nm, λem=540 nm). […]

A further assay addresses T2, vanilloid receptor (VR1) (Homo sapiens, UniProt Q8NER1).
T2 construct: expressed in transfected cells; host or cells: CHO K1 cells (ECACC), stably transfected
Nature of the assay: FLIPR Ca2+ influx assay with CHO K1 cells transfected with the human VR1 gene, capsaicin stimulus (Pharmacological method II). As to conditions: capsaicin 100 nM stimulus, Ki from IC50 by Cheng-Prusoff. The protocol: In addition, compounds according to the invention of the general formulae I, Ia, Ib, I′, I″, I′″ may be preferred which, in a FLIPR assay with CHO K1 cells which have been transfected with the human gene VR1, in a concentration of less than 2000 nM, preferably of less than 1000 nM, particularly preferably of less then 300 nM, very particularly preferably of less than 100 nM, still more preferably of less than 75 nM, further preferably of less than 50 nM, most preferably of less than 10 nM, bring about 50% displacement of capsaicin which is present in a concentration of 100 nM.
In this FLIPR assay, the influx of Ca^2+ is quantified with the assistance of a Ca^2+-sensitive dye (type Fluo-4, Molecular Probes Europe BV, Leiden, Netherlands) in a Fluorescent Imaging Plate Reader (FLIPR, Molecular Devices, Sunnyvale, USA) as described below.
The agonistic or antagonistic action of the substances to be investigated on the vanilloid receptor (VR1) may also be determined with the following assay. According to this assay, the influx of Ca^2+ through the channel is quantified with the assistance of a Ca^2+-sensitive dye (type Fluo-4, Molecular Probes Europe BV, Leiden, Netherlands) in a Fluorescent Imaging Plate Reader (FLIPR, Molecular Devices, Sunnyvale, USA).
Chinese hamster ovary cells (CHO K1 cells, European Collection of Cell Cultures (ECACC), Great Britain) are stably transfected with the VR1 gene. For functional investigations, these cells are plated out onto poly-D-lysine-coated, black 96-hole plates with a clear base (BD Biosciences, Heidelberg, Germany) at a density of 25,000 cells/hole. The cells are incubated overnight at 37° C. and 5% CO2 in a culture medium (Ham's Nutrient Mixture F12, 10 vol. % FCS (foetal calf serum), 18 μg/mL L-proline). On the following day, the cells are incubated with Fluo-4 (Fluo-4 2 μM, Pluronic F127 0.01 vol. %, Molecular Probes in HBSS (Hank's buffered saline solution), Gibco Invitrogen GmbH, Karlsruhe, Germany) for 30 minutes at 37° C. The plates are then washed 3 times with HBSS buffer and, after a further 15 minutes' incubation at room temperature, used for Ca^2+ measurement in the FLIPR. Ca^2+-dependent fluorescence is here measured before and after the addition of the substances to be investigated (wavelength λex=488 nm, λem=540 nm). Quantification proceeds by measuring the highest fluorescence intensity (FC, fluorescence counts) over time.
The FLIPR protocol consists of 2 additions of substance. The substances to be tested (10 μM) are firstly pipetted onto the cells and Ca^2+ influx is compared with the control (capsaicin 10 μM) (% activation relative to the Ca^2+ signal after addition of 10 μM of capsaicin). After 5 minutes' incubation, 100 nM of capsaicin are added and the influx of Ca^2+ is likewise determined.
The percentage inhibition in comparison with the maximum achievable inhibition with 10 μM capsaicin is calculated.
On the basis of the percentage displacement by different concentrations of the compounds to be tested of the general formula I, IC50 inhibition concentrations which bring about 50% displacement of capsaicin were calculated. Ki values for the test substances were obtained by conversion using the Cheng-Prusoff equation (Cheng, Prusoff; Biochem. Pharmacol. 22, 3099-3108, 1973).

Assay [2] has as its target vanilloid receptor 1 (VR1/TRPV1 receptor) (Homo sapiens, UniProt Q8NER1). Nature of the assay: Human VR1/TRPV1 receptor inhibition after pH stimulus. The settings on record: for inhibition at 5 µM: compound 5 μM; for inhibition at 10 µM: compound 10 μM.

By Ki is commonly meant a measure of affinity in units of concentration, obtained from inhibition or displacement. High values mean a looser hold on the target, low ones a stronger hold on the target. One may read the inhibition as the relative decrease from the control value, in per cent.

Chain of vanilloid receptor 1 (VR1/TRPV1 receptor) (Q8NER1 whole entry): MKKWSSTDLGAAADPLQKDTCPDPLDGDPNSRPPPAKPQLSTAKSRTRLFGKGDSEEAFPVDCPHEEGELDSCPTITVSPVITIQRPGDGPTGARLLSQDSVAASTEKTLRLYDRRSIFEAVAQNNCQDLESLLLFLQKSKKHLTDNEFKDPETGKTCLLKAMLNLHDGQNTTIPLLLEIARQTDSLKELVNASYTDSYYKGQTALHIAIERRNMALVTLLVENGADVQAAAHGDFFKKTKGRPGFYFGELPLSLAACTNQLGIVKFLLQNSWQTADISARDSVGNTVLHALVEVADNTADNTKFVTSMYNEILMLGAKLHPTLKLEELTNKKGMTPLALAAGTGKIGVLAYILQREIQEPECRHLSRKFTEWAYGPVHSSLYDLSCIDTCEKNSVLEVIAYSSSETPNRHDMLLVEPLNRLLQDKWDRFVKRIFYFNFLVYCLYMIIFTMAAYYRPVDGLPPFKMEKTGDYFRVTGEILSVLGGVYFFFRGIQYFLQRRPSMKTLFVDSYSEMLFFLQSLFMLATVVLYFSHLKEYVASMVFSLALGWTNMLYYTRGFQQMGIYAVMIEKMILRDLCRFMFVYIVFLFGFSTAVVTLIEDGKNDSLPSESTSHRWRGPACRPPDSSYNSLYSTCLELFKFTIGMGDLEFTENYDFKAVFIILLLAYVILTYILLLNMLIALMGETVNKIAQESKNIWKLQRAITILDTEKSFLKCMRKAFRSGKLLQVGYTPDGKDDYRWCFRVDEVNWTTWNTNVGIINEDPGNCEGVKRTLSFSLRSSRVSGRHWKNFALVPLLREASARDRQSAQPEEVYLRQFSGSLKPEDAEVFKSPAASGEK
T2 sequence (Q8NER1 whole entry): as above

Take `CC(C(=O)NCc1ccc(C(F)(F)F)cc1SC1CCCCC1)c1ccc(N(C)S(C)(=O)=O)c(F)c1` (stereo not drawn) [Example 13, N-(2-(cyclohexylthio)-4-(trifluoromethyl)benzyl)-2-(3-fluoro-4-(N-methylmethylsulfonamido)phenyl)propanamide]: the inhibition constant Ki was determined as 5.2 nM in assay [1] and 33.1 nM on vanilloid receptor (VR1). For the same molecule, the “IC50 (human) after pH stimulus” value in assay [2] is listed as “ne”.

In assay [1], `CC1CCN(c2cc(C(C)(C)C)ccc2CNC(=O)C(C)c2ccc(N(C)S(C)(=O)=O)c(F)c2)CC1` (stereo not drawn) [Example 14, N-(4-tert.-butyl-2-(4-methylpiperidin-1-yl)benzyl)-2-(3-fluoro-4-(N-methylmethylsulfonamido)phenyl)propanamide] gave an inhibition constant Ki of 3 nM. The molecule also displayed a Ki on vanilloid receptor (VR1) of 13.1 nM. Besides, in assay [2], at 5 µM the inhibition was 9% and the inhibition at 10 µM amounted to 43%.

Regarding `CC(C(=O)NCc1ccc(C(C)(C)C)cc1SC1CCCCC1)c1ccc(N(C)S(C)(=O)=O)c(F)c1` (stereo not drawn) [Example 15, N-(4-tert.-butyl-2-(cyclohexylthio)benzyl)-2-(3-fluoro-4-(N-methylmethylsulfonamido)phenyl)propanamide], the results for the inhibition constant (Ki) (in assay [1]; on vanilloid receptor (VR1)) were 7.6 nM and 18.3 nM, respectively. 1 µM produced 0% inhibition in assay [2] (compound 1 μM). This molecule came in with an inhibition at 5 µM in assay [2] of 6%. Moreover, 10 µM produced 30% inhibition in assay [2].
